{"source": "patent US6753348B2", "about": "“BTK inhibitors and methods for their identification and use” (Parker Hughes Institute, priority 1998, dated 2004)", "key": {"[1]": {"molecular_target": "T1, JAK3 (Homo sapiens, UniProt P52333)", "T1 sequence (P52333 1-1124)": "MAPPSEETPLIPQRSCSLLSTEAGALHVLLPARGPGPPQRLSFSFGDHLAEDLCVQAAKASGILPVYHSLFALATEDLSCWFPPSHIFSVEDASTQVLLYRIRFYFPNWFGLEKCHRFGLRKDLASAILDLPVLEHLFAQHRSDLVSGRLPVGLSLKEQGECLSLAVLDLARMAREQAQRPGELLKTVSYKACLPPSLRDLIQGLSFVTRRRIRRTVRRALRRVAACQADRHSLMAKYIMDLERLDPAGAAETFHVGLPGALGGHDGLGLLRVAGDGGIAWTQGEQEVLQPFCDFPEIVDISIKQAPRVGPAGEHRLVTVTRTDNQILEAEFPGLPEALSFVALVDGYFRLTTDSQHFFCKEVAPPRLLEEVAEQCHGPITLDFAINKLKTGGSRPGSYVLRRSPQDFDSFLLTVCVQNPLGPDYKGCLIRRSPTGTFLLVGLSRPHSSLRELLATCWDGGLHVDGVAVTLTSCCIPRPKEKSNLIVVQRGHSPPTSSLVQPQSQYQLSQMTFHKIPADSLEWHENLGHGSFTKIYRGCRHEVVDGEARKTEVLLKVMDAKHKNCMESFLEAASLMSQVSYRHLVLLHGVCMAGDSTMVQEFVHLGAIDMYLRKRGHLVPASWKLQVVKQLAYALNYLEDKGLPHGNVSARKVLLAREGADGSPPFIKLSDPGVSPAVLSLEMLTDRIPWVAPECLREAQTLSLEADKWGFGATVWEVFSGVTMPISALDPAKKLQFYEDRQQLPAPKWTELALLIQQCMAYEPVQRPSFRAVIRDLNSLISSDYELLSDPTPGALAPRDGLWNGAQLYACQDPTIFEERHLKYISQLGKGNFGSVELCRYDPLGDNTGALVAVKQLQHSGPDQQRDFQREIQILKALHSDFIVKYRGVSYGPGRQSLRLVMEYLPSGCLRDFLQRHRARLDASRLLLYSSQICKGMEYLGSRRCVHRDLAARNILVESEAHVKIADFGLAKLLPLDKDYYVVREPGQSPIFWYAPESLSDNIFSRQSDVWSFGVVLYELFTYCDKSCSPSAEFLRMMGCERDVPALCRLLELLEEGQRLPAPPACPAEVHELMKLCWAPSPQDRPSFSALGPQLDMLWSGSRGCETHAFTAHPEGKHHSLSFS", "test": "Cell-free tyrosine kinase inhibition assay JAK3", "format": "biochemical"}, "[2]": {"system": "B18.2, NALM-6 and ALL-1 cells", "test": "Chemosensitization to ceramide and vincristine, DNA fragmentation", "format": "cell-based", "details": "100 μM plus VCR 10 ng/ml or C2-CER 10 μM, 24 hours"}, "[3]": {"system": "RBL-2H3 rat mast cells", "test": "IgE/FcεRI receptor mediated leukotriene C4 release, RBL-2H3 mast cells", "format": "cell-based", "details": "RBL-2H3, IgE/DNP-BSA challenge, 30 min pre-incubation, 1-100 μM, N = 3-4, read-out: EC50 (mean ± SEM), inhibition of leukotriene C4 release", "protocol": "Mast Cell Cultures. RBL-2H3 mast cells were a gift from Dr. Reuben P. Siraganian (Laboratory of Microbiology and Immunology, National Institute of Dental Research, National Institute of Health). The cells were maintained as monolayer cultures in 75- or 150-cm^2 flask in Eagle's essential medium supplemented with 20% fetal calf serum. Human fetal livers (16 to 21 weeks of gestational age) were obtained from prostaglandin-induced human abortuses. Subsequently, single cell suspensions were prepared and mononuclear cells were isolated by centrifugation on Ficoll-Hypaque gradients as described (Malaviya, R., et al., (1999) J Biol Chem, 274, 27028-27038). Isolated cells were cultured for 8 weeks in the presence of 100 ng/ml rhSCF, 2 ng/ml rhIL-4 (Malaviya, R., et al., (1999) J Biol Chem, 274, 27028-27038; Xia, H. Z., et al., (1997) J Immunol, 159, 2911-2921). Culture medium was replaced with fresh medium once a week for the first 2 weeks and twice a week thereafter. All human tissue specimens were used following the guidelines of the Parker Hughes Institute Institutional Review Board on the Use of Human Subjects in Research for secondary use of pathologic or surgical tissue. At the end of the 8 weeks the fetal liver derived human mast cell culture contained 70-90 percent mast cells, based on toluidine blue and tryptase staining (Xia, H. Z., et al., (1997) J Immunol, 159, 2911-2921).\nStimulation of Mast Cells. RBL-2H3 rat mast were sensitized with monoclonal anti-DNP IgE antibody (0.24 mg/ml) for 1 h at 37° C. in a 48-well tissue culture plate. Unbound IgE was removed by washing the cells with PIPES-buffered saline. After washing, PIPES-buffered saline containing 1 mM calcium chloride was added to the monolayers of the RBL-2H3 cells. The cells were challenged with 20 ng/ml DNP-BSA for 30 min at 37° C. The plate was centrifuged at 200 g for 10 min at 4° C. Supernatants were removed and saved. Fetal liver-derived human mast cells were resuspended in culture medium at a cell density of 5×10^6/ml and sensitized with human IgE (150 μg/ml) for 3 h at 4° C. After sensitization the cells were washed with tyrode buffer containing 1 mM calcium and 1 mM magnesium and challenged with mouse monoclonal anti-human IgE (40 μg/ml) for 30 min at 37° C. To study the effect of test drugs, RBL-2H3 rat mast cells or human mast cells were incubated with the drugs at the indicated concentrations or vehicle for 30 min prior to antigen challenge.\nMediator Release Assay. Leukotriene C4 levels were estimated in cell free supernatants of mast cells by immunoassay (Malaviya, R. and Abraham, S. N., (1995) Methods Enzymol, 253, 27-43).\nMast cells release large amounts of leukotrienes upon IgE receptor ligation. Because of the reported ability of LFM as a mast cell inhibitor, we utilized 13 analogues of LFM (Table 1) and examined their effect on IgE/FcεERI receptor mediated mast cell leukotriene C4 release. RBL-2H3 cells, a mucosal mast cell line, were treated with 5 different concentrations of the compounds ranging from 1 μM to 100 μM or vehicle for 30 min before challenge with antigen (DNP-BSA) at 37° C. Leukotriene C4 release was quantitated in the extracellular medium employing a previously described ELISA (Malaviya, R. and Abraham, S. N., (1995) Methods Enzymol, 253, 27-43)."}}}
{"smiles": "C/C(O)=C(\\C#N)C(=O)Nc1cc(Br)ccc1Br", "note": "[LFM-A13, α-Cyano-β-hydroxy-β-methyl-N-(2,5-dibromophenyl)-propenamide]", "values": [{"measurement": "IC50", "setting": "[1]", "result": "> 278", "unit": "µM"}, {"measurement": "effect on enzymatic activity of JAK3", "setting": "[1]; concentrations as high as 100 μg/ml (~278 μM)", "result": "did not affect the enzymatic activity"}, {"measurement": "sensitivity to ceramide-induced and vincristine-induced apoptosis", "setting": "[2]", "result": "enhances the sensitivity"}]}
{"smiles": "CC(O)=C(C#N)C(=O)Nc1cccc(C(F)(F)F)c1", "note": "[LFM-A8, α-Cyano-β-hydroxy-β-methyl-N-[3-(trifluoromethyl)phenyl]-propenamide]", "values": [{"measurement": "EC50", "setting": "[3]", "result": "28 ± 1", "unit": "µM"}]}
